Results taken from article PMC10323144, “Garbage in, garbage out: how reliable training data improved a virtual screening approach against SARS-CoV-2 MPro” (Frontiers in Pharmacology, 2023).
≈ marks a conversion by molar mass, not a printed value. Where “and” joins values, the source holds several entries; their conditions need not be identical. Identical values can stand only once. Like-named read-outs stand apart in the source and are kept apart here. Marks after values point to notes of the source that are not given here.

Tests used:
[1] = tested on: human lung cell line A549; assay: Cytotoxicity assay, WST-1; conditions: read-out: CC50 A549 cells, 24 h
[2] = Cytotoxicity assay, WST-1; conditions: human, CC50 A549 cells
[3] = in vitro; conditions: African green monkey
[4] = molecular target: SARS-CoV-2 MPro (Severe acute respiratory syndrome coronavirus 2, UniProt P0DTD1); assay: MPro activity assay (de-quenching of Edans fluorescence on cleavage of a Dabcyl/Edans peptide); assay type: biochemical; conditions: for IC50: 60 min pre-incubation, 5 μM substrate
[5] = tested on: SARS-CoV-2 (βCoV/KOR/KCDC03/2020); assay: microbe, parasite or virus in culture; assay type: cell-based
[6] = tested on: Vero cells
[7] = tested on: SARS-CoV-2; set-up: method as in Henss et al., 2021; conditions: 72 h assay ref Henss et al., 2021, cited from earlier work
[8] = tested on: MPro; conditions: compiled from peer-reviewed sources (287 compounds) ref the 18 original articles; cited from earlier work
[9] = Severe acute respiratory syndrome coronavirus 2, Vero, 24 h

Row | SMILES | CC50 at 24 h [2] [µM] | CC50 [3] [µM] | IC50 [4] | IC50 [5] [µM] | IC50 [5, 9] [µM] | further results
1 | [O-][n+]1onc2ccc(/C=C/[S+]([O-])c3ccc(Cl)cc3)cc21 (centres unmarked) [4d] | ≤ 50 | 15.2 | 0.121 ± 0.002 µM | 7.3 | ~8 | CC50 [1]: 50 to 100 µM
2 | O=c1c(Cl)c(Cl)cnn1Cc1nc2ccccc2c2ccccc12 [39d] | – | – | 2 µM | – | – | impairment of cell viability ([6]; at 50 μM): 13%; inhibition at 50 µM ([5]; Severe acute respiratory syndrome coronavirus 2, Vero, at 50 μM, read-out: inhibition of viral replication): 18%
3 | O=c1c(Cl)c(Cl)cnn1Cc1nc2ccccc2c2ccccc12 [Cpd 39] | 50 to 100 | > 50 | 1.97 ± 0.5 µM | – | > 50 | Class (MPro activity class) ([4]; in-house acquired data, internal screening under standardized conditions (128 compounds)): 0 (compounds with IC50 > 20 μM, percentage inhibition <80% at 20 µM or 50 μM, or percentage enzyme inhibition <50% at 10 µM were labelled as INACTIVE)
4 | O=C(O[C@@H]1Cc2c(O)cc(O)cc2O[C@@H]1c1cc(O)c(O)c(O)c1)c1cc(O)c(O)c(O)c1 [epigallocatechin gallate] | – | – | – | – | – | IC50 SARS-CoV-2 replication [7]: 1.73 mg/L (≈ 3.77 µM); IC50 ([7]; read-out: IC50 SARS-CoV-2 replication): 3.9 µM
5 | O=C(/C=C/c1cccc2ccccc12)c1c(O)ccc2ccccc12 [28d] | > 100 | > 50 | 1.4 µM and 1.35 µM | – | 48.9 | impairment of cell viability ([6]; African green monkey): ~25%
6 | CCC(CC)COC(=O)[C@H](C)N[P@](=O)(OC[C@H]1O[C@@](C#N)(c2ccc3c(N)ncnn23)[C@H](O)[C@@H]1O)Oc1ccccc1 [Remdesivir] | – | > 50 | – | 7.8 | 8 | SI: selectivity index = CC50 mammalian cell/IC50 SARS-CoV-2 [6]: >50 (>6.4) ^a; Class (MPro activity class) [8]: 0 (compounds with IC50 > 20 μM, percentage inhibition <80% at 20 µM or 50 μM, or percentage enzyme inhibition <50% at 10 µM were labelled as INACTIVE)
7 | [O-][n+]1onc2ccc(/C=C/Sc3ccc(Cl)cc3)cc21 [3d] | ≤ 50 | 15.2 | 0.73 ± 0.16 µM | 8.3 | ~8 | CC50 [1]: < 50 µM
